These results are taken from patent US20220313629A1, “TRANSIENT POTENTIAL MELASTATIN 8 (TRPM8) ANTAGONISTS AND RELATED METHODS” (MARSHALL UNIVERSITY RESEARCH CORPORATION, priority 2019, published 2022).

Read-outs that look alike come from different tables or passages of the source.

One experiment addresses human TRPV1 (Homo sapiens, UniProt Q8NER1). In words: TRPV1 agonist and antagonist Ca2+ flux assay (FLIPR, Fluo-8) in HEK293 cells stably expressing human TRPV1. It is filed as cell-based. As to conditions: for hTRPV1 % Activation (n = 3): normalized to Emax of capsaicin (3 μM). (In general: Calcium assays in cells follow changes in intracellular calcium, usually with a dye or a luminescent sensor.)

For another experiment, the target named is TRPM8 (Homo sapiens, UniProt Q7Z2W7). In words: TRPM8 antagonist activity by Fura-2 Ca2+ imaging in HEK-293 cells stably expressing human TRPM8. In kind it is cell-based. The conditions noted are these: for IC50: read-out: Functional Activity hTRPM8 potency IC50 ± SEM.
Chain of TRPM8 (Q7Z2W7 whole entry): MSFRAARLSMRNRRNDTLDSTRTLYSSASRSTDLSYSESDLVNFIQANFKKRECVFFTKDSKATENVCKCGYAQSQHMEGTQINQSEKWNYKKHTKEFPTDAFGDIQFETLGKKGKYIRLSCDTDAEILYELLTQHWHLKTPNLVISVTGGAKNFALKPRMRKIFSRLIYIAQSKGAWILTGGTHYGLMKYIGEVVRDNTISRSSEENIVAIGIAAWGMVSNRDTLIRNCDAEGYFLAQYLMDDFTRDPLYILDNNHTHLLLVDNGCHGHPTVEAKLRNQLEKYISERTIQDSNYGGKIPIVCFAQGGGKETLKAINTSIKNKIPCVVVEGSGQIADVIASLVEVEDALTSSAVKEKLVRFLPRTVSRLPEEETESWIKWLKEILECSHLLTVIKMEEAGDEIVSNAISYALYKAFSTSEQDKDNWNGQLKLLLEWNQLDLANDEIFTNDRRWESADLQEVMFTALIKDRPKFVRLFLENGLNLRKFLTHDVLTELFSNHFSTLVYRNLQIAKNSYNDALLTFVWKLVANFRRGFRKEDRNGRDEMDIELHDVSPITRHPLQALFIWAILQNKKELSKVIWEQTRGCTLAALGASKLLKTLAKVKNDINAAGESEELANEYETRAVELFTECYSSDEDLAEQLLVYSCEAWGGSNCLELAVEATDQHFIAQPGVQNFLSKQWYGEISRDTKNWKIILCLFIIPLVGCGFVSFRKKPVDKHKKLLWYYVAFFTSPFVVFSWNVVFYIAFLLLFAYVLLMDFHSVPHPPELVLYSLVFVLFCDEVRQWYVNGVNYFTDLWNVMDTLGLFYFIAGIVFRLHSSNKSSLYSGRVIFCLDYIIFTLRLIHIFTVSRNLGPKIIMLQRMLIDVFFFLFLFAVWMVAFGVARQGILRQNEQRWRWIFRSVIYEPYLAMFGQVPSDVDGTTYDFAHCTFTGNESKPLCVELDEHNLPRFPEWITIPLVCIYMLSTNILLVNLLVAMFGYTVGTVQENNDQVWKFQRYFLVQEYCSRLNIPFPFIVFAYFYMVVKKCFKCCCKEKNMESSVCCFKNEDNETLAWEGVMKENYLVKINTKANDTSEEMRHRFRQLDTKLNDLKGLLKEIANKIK
Experiment [1] relates to Oxaliplatin (OXP)-induced cold allodynia in male C57-mice. In words: Oxaliplatin (OXP)-induced cold allodynia, acetone test. It is filed as in vivo, mouse. On the procedure: In Vivo Assays. C57-mice (≈30g) (Harlam, Holland) were used for the study. All experiments were approved by the Institutional Animal and Ethical Committee of the Universidad Miguel Hernandez where experiments were conducted and they were in accordance with the guidelines of the Economic European Community and the Committee for Research and Ethical Issues of the International Association for the Study of Pain. All parts of the study concerning animal care were performed under the control of veterinarians.
Cold allodynia. Oxaliplatin (Tocris) was dissolved in water with gentle warming and was […] injected on days 1, 3 and 5 at a 6 mg/kg dose. The day 7 after administration, experiments were performed. Together with Oxaliplatin injection, saline and a 5% Mannitol solution were intraperitoneally injected to prevent kidney damage and dehydration. The Compound 14 stock was prepared in DMSO (Sigma-Aldrich) and diluted in saline for injections. Compounds at different doses (0.1 to 1 μg) was injected into the plantar surface (25 μL) of the right hind paw of mice. Cold chemical thermal sensitivity was assessed using acetone drop method. Mice were placed in a metal mesh cage and allowed to habituate for approximately 30 minutes in order to acclimatize them. Freshly dispensed acetone drop (10 μL) was applied gently on to the mid plantar surface of the hind paw. Cold chemical sensitive reaction with respect to paw licking was recorded as a positive response (nociceptive pain response). The responses were measured for 20-s with a digital stopwatch. For each measurement, the paw was sampled twice and the mean was calculated. The interval between each application of acetone was approximately 5 minutes.
Cold Allodynia. […] Both acute and chronic OXP-induced cold hypersensitivity have been reproduced in rats and correlated with TRPM8 expression and function. Mizoguchi et al. reported that, in a rodent model, acute cold allodynia after OXP injection was alleviated by the TRPM8 blockers N-(2-aminoethyl)-N-[4-(benzyloxy)-3-methoxybenzyl]-N′-(1S)-1-(phenyl) ethyl] urea and TC-I 2014. According to these findings, the effect of Compound 14 was investigated in an OXP-induced cold allodynia model, using acetone for cooling stimulation. Considering that the cold pain threshold is increased from ≈12° C. to ≈26° C. in OXP-treated patients, acetone stimulation is considered to evoke pain in OXP-treated mice.
The activity of Compound 14 was evaluated 7 days after three intraperitoneal injections of OXP (6 mg/kg) in C57/BL6 mice, when cold allodynia had developed.

Setting [2] is: HEK293, read-out: hTRPV1 % Inhibition (n = 3).
The mark [3] stands for this setting: 0.1 and 1 μg single administration, day 7 after OXP.

Chain of human TRPV1 (Q8NER1 whole entry): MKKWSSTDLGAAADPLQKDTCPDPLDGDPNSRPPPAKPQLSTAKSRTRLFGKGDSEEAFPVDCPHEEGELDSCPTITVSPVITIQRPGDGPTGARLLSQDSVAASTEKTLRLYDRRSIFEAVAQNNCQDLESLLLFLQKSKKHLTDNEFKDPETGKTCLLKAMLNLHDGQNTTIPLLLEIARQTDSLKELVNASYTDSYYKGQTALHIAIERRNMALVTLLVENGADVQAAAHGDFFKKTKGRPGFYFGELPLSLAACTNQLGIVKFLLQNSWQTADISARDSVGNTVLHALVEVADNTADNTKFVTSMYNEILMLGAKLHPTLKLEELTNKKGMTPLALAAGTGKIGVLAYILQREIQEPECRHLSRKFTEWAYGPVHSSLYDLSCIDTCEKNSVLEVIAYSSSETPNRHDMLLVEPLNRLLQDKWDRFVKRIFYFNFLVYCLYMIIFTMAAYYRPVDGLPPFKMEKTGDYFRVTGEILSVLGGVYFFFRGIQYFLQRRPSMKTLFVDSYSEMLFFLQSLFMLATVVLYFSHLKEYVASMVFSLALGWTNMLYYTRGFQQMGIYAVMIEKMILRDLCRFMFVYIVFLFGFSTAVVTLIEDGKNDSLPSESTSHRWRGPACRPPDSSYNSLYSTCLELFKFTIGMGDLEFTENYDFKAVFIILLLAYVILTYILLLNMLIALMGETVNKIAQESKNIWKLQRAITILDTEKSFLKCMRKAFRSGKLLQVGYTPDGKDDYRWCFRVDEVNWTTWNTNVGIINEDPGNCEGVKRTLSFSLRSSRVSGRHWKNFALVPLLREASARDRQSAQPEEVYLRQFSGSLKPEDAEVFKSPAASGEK

Take `O=C(NC1CCC2(CCCC2)CC1)c1ccc(-c2ccccc2)cc1` [Compound 14, N-(spiro[4.5]decan-8-yl)-[1,1′-biphenyl]-4-carboxamide]: on human TRPV1 (setting [2]), the inhibition at 0.003 µM is -9 ± 2% and the inhibition at 0.03 µM is -0.6 ± 5%. Moreover, the “effect on hTRPV1-mediated responses (intrinsic and antagonist activity)” value on human TRPV1 (at concentrations 13- to 25-fold higher than hTRPM8 IC50) is “do not affect”. Moreover, the “selectivity for TRPM8 vs. TRPV1” value on human TRPV1 (from FLIPR single-point assays) turned out to be 13 fold. In addition, on human TRPV1 (tested at 3 nM), the “hTRPV1 % Activation (n = 3)” value worked out at 1 ± 1%. Further, at human TRPV1 (tested at 30 nM), the “hTRPV1 % Activation (n = 3)” value is given as 1 ± 2%. Further, the “effect on menthol-evoked TRPM8-mediated Ca2+ entry” value at TRPM8 (compound at 3 nM against maximal (100 μM) menthol) was “significantly (P<0.01) reduce TRPM8-mediated Ca^2+ entry triggered by menthol”. Moreover, the “effect on icilin-induced Ca2+ influx at higher concentrations” value on TRPM8 (higher concentrations of the dose-response curve) is “nearly abolishes the Ca^2+ influx”. Besides, the “lowest concentration still causing significant reduction in icilin-evoked TRPM8-mediated Ca2+ entry” value on TRPM8 (icilin 500 nM) was found to be 3 nM. In addition, the IC50 at TRPM8 (inhibition of icilin (500 nM)-evoked Ca2+ entry, HEK-293 cells stably expressing hTRPM8, mean ± SEM, three independent experiments) worked out at 2.4 ± 1 nM. The IC50 at TRPM8 is not above 10 nM. In addition, in experiment [1] (setting [3]), the “time after administration at which attenuated cold allodynia is evident” value is 15 min and the “time after administration of maximum inhibition of cold allodynia” value turned out to be 30 min. The “effect on OXP effects at 60 minutes” value in experiment [1] (60 minutes after administration) was “significantly suppresses OXP effects”. For the same compound, in experiment [1] (C57/BL6 mice), the “effect on oxaliplatin-induced cold allodynia” value is “able to attenuate oxaliplatin-induced cold allodynia in vivo”.

Broadly, the inhibition is the relative decrease from the control value, in per cent. As usually defined, the IC50 is the concentration needed to halve the response being measured.
